What was measured:
Conditions in all cases: 72 h
U2OS [1] = experiment: relative viability EC50 (midpoint between 100% and the lowest measured viability); higher = less toxic
Calu-3 [2] = experiment: as above
HepG2 [3] = experiment: as above
Caco-2 [4] = experiment: as above
U2OS [5] = experiment: drug sensitivity score (DSS) for viability; higher = more toxic; extreme values may be limits of the assay
Calu-3 [6] = experiment: as above
HepG2 [7] = experiment: as above
Caco-2 [8] = experiment: as above
U2OS [9] = experiment: cell viability relative to DMSO; higher = less toxic
Calu-3 [10] = experiment: as above
HepG2 [11] = experiment: as above
Caco-2 [12] = experiment: as above
Vero E6 [13] = experiment: relative viability EC50 (midpoint between 100% and the lowest measured viability); higher = less toxic
Vero E6 [14] = experiment: drug sensitivity score (DSS) for viability; higher = more toxic; extreme values may be limits of the assay
Vero E6 [15] = experiment: cell viability relative to DMSO; higher = less toxic

Structure (SMILES)	relative viability EC50 (U2OS [1]) [µM]	relative viability EC50 (Calu-3 [2]) [µM]	relative viability EC50 (HepG2 [3]) [µM]	relative viability EC50 (Caco-2 [4]) [µM]	drug sensitivity score (U2OS [5])	drug sensitivity score (Calu-3 [6])	drug sensitivity score (HepG2 [7])	drug sensitivity score (Caco-2 [8])	cell viability (U2OS [9]; 1 nM) [%]	cell viability (U2OS [9]; 10 nM) [%]	cell viability (U2OS [9]; 100 nM) [%]	cell viability (U2OS [9]; 1000 nM) [%]	cell viability (U2OS [9]; 10000 nM) [%]	cell viability (Calu-3 [10]; 1 nM) [%]	cell viability (Calu-3 [10]; 10 nM) [%]	cell viability (Calu-3 [10]; 100 nM) [%]	cell viability (Calu-3 [10]; 1000 nM) [%]	cell viability (Calu-3 [10]; 10000 nM) [%]	cell viability (HepG2 [11]; 1 nM) [%]	cell viability (HepG2 [11]; 10 nM) [%]	cell viability (HepG2 [11]; 100 nM) [%]	cell viability (HepG2 [11]; 1000 nM) [%]	cell viability (HepG2 [11]; 10000 nM) [%]	cell viability (Caco-2 [12]; 1 nM) [%]	cell viability (Caco-2 [12]; 10 nM) [%]	cell viability (Caco-2 [12]; 100 nM) [%]	cell viability (Caco-2 [12]; 1000 nM) [%]	cell viability (Caco-2 [12]; 10000 nM) [%]	relative viability EC50 (Vero E6 [13]) [µM]	drug sensitivity score (Vero E6 [14])	cell viability (Vero E6 [15]; 1 nM) [%]	cell viability (Vero E6 [15]; 10 nM) [%]	cell viability (Vero E6 [15]; 100 nM) [%]	cell viability (Vero E6 [15]; 1000 nM) [%]	cell viability (Vero E6 [15]; 10000 nM) [%]
O=C1O[C@H](CO)[C@@H](O)[C@H](O)[C@H]1O [gluconolactone]	> 10	> 10	> 10	> 10	0	0	0	0	106	102	104	98.9	106	99.6	90.5	100	97.2	105	90.9	103	92.2	91.2	94.5	109	106	102	95.1	101							
CCCCCCN(CCCCCC)C(=O)Cc1c(-c2ccc(F)cc2)[nH]c2ccccc12 [FGIN-1-27]	> 10	> 10	> 10		0	0	0	2.2	98.5	102	103	100	92.3	96	99.2	99.8	102	89	104	95.2	94.3	106	96.6	99.5	99.6	89.2	94.3	68.6	> 10	0	98.6	94.5	94	95.2	92.8
Cc1cnc(-c2cnc(NCCNc3ccc(C#N)cn3)nc2-c2ccc(Cl)cc2Cl)[nH]1		> 10	> 10	> 10		0	0	0						87.6	107	99.1	110	89.7	104	99.3	107	113	98.4	99.5	105	95.7	110	99.6	> 10	1.2	101	100	94.9	97.6	76.8
COc1cccc(OC)c1OCCNC[C@H]1COc2ccccc2O1 [WB-4101]		> 10	> 10	> 10		1.4	0	0.1						107	102	104	90.9	80.8	106	109	107	103	93.2	105	104	106	106	85.3	> 10	0	104	100	99.1	98.2	98.5
CC(C)(C)c1ccc(/C=C/C(=O)Nc2ccc3c(c2)OCCO3)cc1 [AMG-9810]	> 10	> 10	3.43		0	1.4	3.4	2.9	96.4	97.4	98.2	96.7	89.7	103	98.3	101	94.5	78.8	98.3	101	97.9	103	33.1	94.9	92.8	99.3	90.4	67.8	> 10	0	98.3	102	96	97	89.4
O=C(O)c1cc(-c2ccc(F)cc2F)ccc1O [diflunisal]		> 10		> 10		0		0						103	109	109	99.6	95.7						93.3	105	93.9	105	104	> 10	0	103	100	92.9	98.4	97.1
CCCCCCCCCCCCCCCC(=O)OC(CC(=O)[O-])C[N+](C)(C)C (centres undefined) [palmitoylcarnitine]	> 10	> 10	> 10	> 10	0	0.6	0	0	103	104	99.9	100	102	98.3	94.3	100	97	84.2	99.3	96.8	107	95.8	94.9	110	102	102	92.5	93		1.1	96.2	104	104	99.6	73
COc1cc2c(N3CCN(C(=O)Nc4ccc(OC(C)C)cc4)CC3)ncnc2cc1OCCCN1CCCCC1 [tandutinib]		> 10	> 10	> 10		0	0.1	0						109	97	94.7	108	111	110	112	112	109	84.1	113	102	112	105	98.2							
C[C@@]12C[C@@]3(O)O[C@@H](O1)[C@]1(COC(=O)c4ccccc4)[C@H]3C[C@@]12O[C@@H]1O[C@H](CO)[C@@H](O)[C@H](O)[C@H]1O [paeoniflorin]	> 10	> 10	> 10	> 10	0	0	0	0	101	99.8	104	102	101	91	98.6	107	87	98.7	100	100	102	107	95.9	103	101	96	93.5	96							
COc1ccc2c(O[C@@H]3C[C@H]4C(=O)N[C@]5(C(=O)NS(=O)(=O)C6CC6)C[C@H]5/C=C\CCCCN(C)C(=O)[C@@H]4C3)cc(-c3nc(C(C)C)cs3)nc2c1C [simeprevir]	> 10	> 10	> 10		0	0	0.4	1.1	104	98.8	99.9	99.4	105	94.9	99.7	88.7	100	102	102	99.4	92.7	101	81.5	94.8	100	112	102	70.8	> 10	0	102	105	95.4	101	102
C=CCN1CCc2cc(O)c(O)cc2[C@H](c2ccccc2)C1	> 10	> 10	> 10	> 10	0	0	0.5	0.7	99.7	99.3	96.9	102	92.8	89.8	92	103	103	99	100	93.3	105	92.5	86.9	95.1	91.8	86.5	99.5	79.4							
O=C(Nc1ccncc1)C(=O)c1cn(Cc2ccc(Cl)cc2)c2ccccc12 [indibulin]	> 10	> 10	> 10	> 10	0	0	0	0	111	99	97.2	95.4	90.9	97.9	95	110	102	104	91.6	107	94.9	91.3	94.5	75	84	94.9	82.9	92.2		2	75.1	104	79.4	97.3	66.1
O=C(NCNC(=O)NC1C(=O)NC(=O)N1CO)NC1C(=O)NC(=O)N1CO (centres undefined) [imidurea]	> 10	> 10	> 10	> 10	0	0	0.3	0	103	97.3	102	98.3	102	94.4	98.1	104	103	95.6	104	97.3	89.8	98.1	82.9	90.7	95.4	98.7	98	103							
CCCCC(F)(F)[C@@]1(O)CC[C@H]2[C@@H](CC(=O)[C@@H]2CCCCCCC(=O)O)O1 [lubiprostone]	> 10	> 10		> 10	0	0		0	104	102	104	99.8	104	106	102	111	98.6	98.8						108	101	101	103	97.8							
Cc1cnc(CNC(=O)c2c(=O)c3ccc(N4CCCN(C)CC4)nc3n3c2sc2ccccc23)cn1 [CX-5461]	> 10	> 10	1.16	> 10	0	0.3	7.6	0.5	99.5	102	96.9	106	98.4	93.9	105	100	100	84	110	108	110	71.6	30.5	106	114	95.5	121	75.9		4.7	114	92.3	106	84.2	53.3
COc1cccc(OCCCN)c1-c1cc(Nc2cnc(C#N)cn2)n[nH]1	0.022	0.0872	0.0431	0.194	31.6	13.3	21.7	17.6	101	86.7	5.2	2.8	2.5	106	99.9	69.6	48.1	57.8	97.4	97.4	35.7	38.3	25.6	98.9	101	86.7	15.5	21		9	92.9	101	84.9	61.1	65.3

Source: the supplement of paper PMC13380429
